Data taken from patent US9113629B2, “4-amino-6-(4-substituted-phenyl)-picolinates and 6-amino-2-(4-substituted-phenyl)-pyrimidine-4-carboxylates and their use as herbicides” (DOW AGROSCIENCES LLC, priority 2013, dated 2015).
Like-named read-outs stand apart in the source and are kept apart here.

Experiments:
[1] = system: Key Broadleaf Weed and Crop Species; assay: Post-emergent Test II herbicidal activity (Table 5); type: in vivo; settings: post-emergence, 336 h, 14 days after application; for pest or weed control at 70 g/ha: application rate 70 g ai/ha; for pest or weed control at 140 g/ha: application rate 140 g ai/ha
How it was run: (§1)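 Plants grown in Metro-Mix 360 (pH 6.0–6.8) in a greenhouse (~15 h photoperiod, 23–29 °C day) to first or second true leaf stage, then sprayed with compound in acetone/DMSO/aqueous crop-oil-surfactant carrier at 187 L/ha by track sprayer. Injury visually scored 0–100% versus untreated plants after 14 d.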

[2] = system: Key Grass and Sedge Weeds as well as Grass Crops; assay: Post-emergent Test II herbicidal activity (Table 6); type: in vivo; settings: post-emergence, 336 h; for pest or weed control at 70 g/ha: 70 g ai/ha; for pest or weed control at 140 g/ha: 140 g ai/ha
How it was run: as §1

[3] = ABUTH: velvetleaf (Abutilon theophrasti), read-out: Visual Growth Reduction (%) 14 Days After Application, ABUTH
[4] = AMARE: redroot pigweed (Amaranthus retroflexus), read-out: Visual Growth Reduction (%) 14 Days After Application, AMARE
[5] = BRSNN: oilseed-rape, canola (Brassica napus), read-out: Visual Growth Reduction (%) 14 Days After Application, BRSNN
[6] = CHEAL: lambsquarters (Chenopodium album), read-out: Visual Growth Reduction (%) 14 Days After Application, CHEAL
[7] = EPHHL: wild poinsettia (Euphorbia heterophylla), read-out: Visual Growth Reduction (%) 14 Days After Application, EPHHL
[8] = HELAN: sunflower (Helianthus annuus), read-out: Visual Growth Reduction (%) 14 Days After Application, HELAN
[9] = VIOTR: wild pansy (Viola tricolor), read-out: Visual Growth Reduction (%) 14 Days After Application, VIOTR
[10] = CYPES: yellow nutsedge (Cyperus esculentus), read-out: Visual Growth Reduction (%) 14 Days After Application, CYPES
[11] = DIGSA: crabgrass (Digitaria sanguinalis), read-out: Visual Growth Reduction (%) 14 Days After Application, DIGSA
[12] = ECHCG: barnyardgrass (Echinochloa crus-galli), read-out: Visual Growth Reduction (%) 14 Days After Application, ECHCG
[13] = ORYSA: rice (Oryza sativa), crop, read-out: Visual Growth Reduction (%) 14 Days After Application, ORYSA
[14] = SETFA: giant foxtail (Setaria faberi), read-out: Visual Growth Reduction (%) 14 Days After Application, SETFA
[15] = SORVU: grain sorghum (Sorghum vulgare), read-out: Visual Growth Reduction (%) 14 Days After Application, SORVU
[16] = TRZSS (wheat, Triticum aestivum), crop, read-out: Visual Growth Reduction (%) 14 Days After Application, TRZSS
[17] = ZEAMX: maize, corn (Zea mays), crop, read-out: Visual Growth Reduction (%) 14 Days After Application, ZEAMX

Row | SMILES | melting point | pest or weed control at 70 g/ha [1, 3] [%] | pest or weed control at 140 g/ha [1, 3] [%] | pest or weed control at 70 g/ha [1, 4] [%] | pest or weed control at 70 g/ha [1, 5] [%] | pest or weed control at 140 g/ha [1, 5] [%] | pest or weed control at 70 g/ha [1, 6] [%] | pest or weed control at 140 g/ha [1, 6] [%] | pest or weed control at 70 g/ha [1, 7] [%] | pest or weed control at 70 g/ha [1, 8] [%] | pest or weed control at 140 g/ha [1, 8] [%] | pest or weed control at 70 g/ha [1, 9] [%] | pest or weed control at 140 g/ha [1, 9] [%] | pest or weed control at 70 g/ha [2, 10] [%] | pest or weed control at 140 g/ha [2, 10] [%] | pest or weed control at 70 g/ha [2, 11] [%] | pest or weed control at 140 g/ha [2, 11] [%] | pest or weed control at 70 g/ha [2, 12] [%] | pest or weed control at 140 g/ha [2, 12] [%] | pest or weed control at 70 g/ha [2, 13] [%] | also measured
1 | COC(=O)c1nc(-c2ccc(C(F)(F)F)c(F)c2F)nc(N)c1OC [Compound 64] | 140 to 141 °C | 95 to 100 | 95 to 100 | 45 to 59 | 75 to 84 | 85 to 94 | 95 to 100 | 95 to 100 | 95 to 100 | 95 to 100 | 95 to 100 | 60 to 74 | 60 to 74 | 45 to 59 | 60 to 74 | 60 to 74 | 85 to 94 | 45 to 59 | 85 to 94 | 0 to 29 | pest or weed control at 140 g/ha [1, 4]: 75 to 84%; pest or weed control at 140 g/ha [1, 7]: 95 to 100%; pest or weed control at 140 g/ha [2, 13]: 0 to 29%; pest or weed control at 70 g/ha [2, 14]: 30 to 44%; pest or weed control at 140 g/ha [2, 14]: 60 to 74%; pest or weed control at 70 g/ha [2, 15]: 30 to 44%; pest or weed control at 140 g/ha [2, 15]: 45 to 59%; pest or weed control at 70 g/ha [2, 16]: 30 to 44%; pest or weed control at 140 g/ha [2, 16]: 45 to 59%; pest or weed control at 70 g/ha [2, 17]: 95 to 100%; pest or weed control at 140 g/ha [2, 17]: 95 to 100%
2 | Cc1ccc(-c2nc(C(=O)O)c(Cl)c(N)c2F)c(F)c1F [Compound 210] | 159 °C (dec.) | 85 to 94 | 95 to 100 | 95 to 100 | 75 to 84 | 75 to 84 | 95 to 100 | 95 to 100 | 95 to 100 | 95 to 100 | 95 to 100 | 0 to 29 | 0 to 29 | 0 to 29 | 0 to 29 | 0 to 29 | 0 to 29 | 60 to 74 | 75 to 84 | 0 to 29 | pest or weed control at 140 g/ha [1, 4]: 95 to 100%; pest or weed control at 140 g/ha [1, 7]: 95 to 100%; pest or weed control at 140 g/ha [2, 13]: 30 to 44%; pest or weed control at 70 g/ha [2, 14]: 75 to 84%; pest or weed control at 140 g/ha [2, 14]: 85 to 94%; pest or weed control at 70 g/ha [2, 15]: 0 to 29%; pest or weed control at 140 g/ha [2, 15]: 0 to 29%; pest or weed control at 70 g/ha [2, 16]: 0 to 29%; pest or weed control at 140 g/ha [2, 16]: 0 to 29%; pest or weed control at 70 g/ha [2, 17]: 0 to 29%; pest or weed control at 140 g/ha [2, 17]: 45 to 59%
3 | C#Cc1ccc(-c2nc(C(=O)O)c(Cl)c(N)c2F)cc1 [Compound 62] | 142 to 147 °C (dec.) | 75 to 84 | 75 to 84 | 95 to 100 | 95 to 100 | 95 to 100 | 85 to 94 | 85 to 94 | 95 to 100 | 85 to 94 | 95 to 100 | 0 to 29 | 0 to 29 | 95 to 100 | 95 to 100 | 85 to 94 | 85 to 94 | 95 to 100 | 95 to 100 | 0 to 29 | pest or weed control at 140 g/ha [1, 7]: 95 to 100%; pest or weed control at 140 g/ha [2, 13]: 0 to 29%; pest or weed control at 70 g/ha [2, 14]: 95 to 100%; pest or weed control at 140 g/ha [2, 14]: 95 to 100%; pest or weed control at 70 g/ha [2, 15]: 75 to 84%; pest or weed control at 140 g/ha [2, 15]: 75 to 84%; pest or weed control at 70 g/ha [2, 16]: 45 to 59%; pest or weed control at 140 g/ha [2, 16]: 45 to 59%; pest or weed control at 70 g/ha [2, 17]: 75 to 84%; pest or weed control at 140 g/ha [2, 17]: 85 to 94%
4 | COC(=O)c1nc(-c2ccc(OC(F)F)cc2)nc(N)c1OC [Compound 106, methyl 6-amino-2-(4-(difluoromethoxy)phenyl)-5-methoxypyrimidine-4-carboxylate] | 183 to 184 °C | 0 to 29 | 0 to 29 | 0 to 29 | 0 to 29 | 0 to 29 | 0 to 29 | 0 to 29 | 0 to 29 | 0 to 29 | 0 to 29 | 0 to 29 | 0 to 29 | 0 to 29 | 0 to 29 | 0 to 29 | 0 to 29 | 0 to 29 | 0 to 29 | 0 to 29 | pest or weed control at 140 g/ha [1, 4]: 0 to 29%; pest or weed control at 140 g/ha [1, 7]: 0 to 29%; pest or weed control at 140 g/ha [2, 13]: 0 to 29%; pest or weed control at 70 g/ha [2, 14]: 0 to 29%; pest or weed control at 140 g/ha [2, 14]: 0 to 29%; pest or weed control at 70 g/ha [2, 15]: 0 to 29%; pest or weed control at 140 g/ha [2, 15]: 0 to 29%; pest or weed control at 70 g/ha [2, 16]: 0 to 29%; pest or weed control at 140 g/ha [2, 16]: 0 to 29%; pest or weed control at 70 g/ha [2, 17]: 0 to 29%; pest or weed control at 140 g/ha [2, 17]: 0 to 29%
5 | COc1c(N)nc(-c2ccc(C(F)(F)F)c(F)c2F)nc1C(=O)O [Compound 76] | 169 to 170 °C | 95 to 100 | 95 to 100 | 95 to 100 | 85 to 94 | 95 to 100 | 85 to 94 | 95 to 100 | 95 to 100 | 85 to 94 | 95 to 100 | 45 to 59 | 60 to 74 | 0 to 29 | 30 to 44 | 75 to 84 | 85 to 94 | 85 to 94 | 95 to 100 | 0 to 29 | pest or weed control at 140 g/ha [1, 4]: 95 to 100%; pest or weed control at 140 g/ha [2, 13]: 30 to 44%; pest or weed control at 70 g/ha [2, 14]: 45 to 59%; pest or weed control at 140 g/ha [2, 14]: 60 to 74%; pest or weed control at 70 g/ha [2, 15]: 45 to 59%; pest or weed control at 140 g/ha [2, 15]: 45 to 59%; pest or weed control at 70 g/ha [2, 16]: 45 to 59%; pest or weed control at 140 g/ha [2, 16]: 45 to 59%; pest or weed control at 70 g/ha [2, 17]: 0 to 29%; pest or weed control at 140 g/ha [2, 17]: 95 to 100%
